From patent publication US20110263696A1, “PROANTHOCYANIDINS FROM CINNAMON AND ITS WATER SOLUBLE EXTRACT INHIBIT TAU AGGREGATION” (priority 2007, published 2011)

Key:
[1] = system: tau; assay: Tau aggregation / AD fiber formation in vitro (method not specified); assay type: biochemical
Description: In a first illustrative embodiment of an extraction procedure of the invention, an extract is obtained by using nanopure water equal to 10 times the weight of cinnamon. The mixture is heated for 10 minutes at 95° C., cooled, and centrifuged at 14,000 rpm. The nearly clear supernatant is centrifuged again and then the clear supernatant is filtered through 0.4 and 0.2 micron filters and lyophilized. A fluffy pale tan colored powder can be obtained.

[2] = system: tau filaments; assay: Transmission electron microscopy of tau filaments; assay type: biochemical; details: aggregating conditions
Text: In one illustrative embodiment of the invention, transmission electron microscopy, is a highly desirable technique for studies of aggregation with heparin and water or with heparin and purified proanthocyanidin or cinnamon extracts from Cinnamomum zeylanicum, Cinnamomum cassia, or Cinnamomum loueirii. It provides definition of what the aggregates actually are, e.g., filaments and their abundance, sizes, and shapes.

tau, sequence (P10636 572-758 limits assumed): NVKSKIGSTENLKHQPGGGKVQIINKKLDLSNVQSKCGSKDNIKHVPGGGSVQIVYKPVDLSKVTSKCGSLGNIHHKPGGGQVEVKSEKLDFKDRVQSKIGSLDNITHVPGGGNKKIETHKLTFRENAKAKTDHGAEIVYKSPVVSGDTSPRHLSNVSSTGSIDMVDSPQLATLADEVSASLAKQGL
tau filaments, sequence (P10636 572-758 limits assumed): as above

## A-linked proanthocyanidin trimer [A-type trimer]
[1]; complete inhibition of tau aggregation/AD fiber formation
  Concentration that completely inhibits tau aggregation in vitro: 0.17 mg/ml PA trimer
[1]; same amount of PA trimer, fraction of CE effect
  Effectiveness of purified PA trimer relative to CE: ½
[2]
  Formation of tau filaments by transmission electron microscopy: inhibited
